{"source": "patent US20130108702A1", "about": "“COPPER/SILICA NANOPARTICLES, METHODS OF MAKING, AND METHODS OF USE” (priority 2011, published 2013)", "key": {"B. subtilis": {"test_system": "B. subtilis", "type": "cell-based, Bacillus subtilis (ATCC 9372)", "conditions": "ppm of silver, organism not given", "method": "(§1) Antibacterial properties of C—S CuSiNP and AgSiNG materials were evaluated against a gram positive Bacillus subtilis (B. subtilis, ATCC 9372) and a gram negative Escherichia coli (E. coli, ATCC 35218) organism. For all antibacterial assays, bacterial concentration of 10^5 cells/mL was considered. Copper sulfate with same metallic copper concentration was used as positive controls and silica nanoparticle (without Cu loading) was used as negative control.\n(§2) Two sets of different concentrations of C—S CuSiNP were made in LB broth (0.49, 1.2, 2.4, 4.9, 7.2 and 9.8 ppm copper concentration) to a final volume of 10 mL. 250 μL (10^5 cells/mL) of E. coli and B. subtilis were added to set 1 and 2 respectively. Silica nanoparticle was used as negative control and copper sulfate with equivalent amount of copper was used as positive control. […]\n(§3) The growth inhibitory effects of C—S CuSiNP and AgSiNG against E. coli and B. subtilis were studied in liquid media (FIG. 2.3 and FIG. 2.4). Bacterial growth with different concentrations of C—S CuSiNP and AgSiNG (0.49 to 9.8 μg mL^−1) was monitored after 24 hours of incubation at 37° C. by measuring the optical density at 600 nm using Teysche800 spectrophotometer. Since the turbidity of silica based material can interfere with the optical density reading, the background measurement was subtracted to calculate the final reading."}, "E. coli": {"test_system": "E. coli", "type": "cell-based, Escherichia coli (ATCC 35218)", "conditions": "ppm of silver, organism not given", "method": "as §1, §2, §3"}}}
{"compound": "O=[N+]([O-])[O-].[Ag+]", "note": "[silver nitrate]", "values": [{"measurement": "silver concentration at which growth inhibition can be seen", "setting": "B. subtilis", "value": 2.4, "unit": "ppm"}, {"measurement": "silver concentration at which growth inhibition can be seen", "setting": "E. coli", "value": 2.4, "unit": "ppm"}]}
